{"source": "patent US4704380A", "about": "“Method of stimulating the growth of macrophage-like cells utilizing mitogenic peptides” (Washington University, priority 1987, dated 1987)", "type_in_all_cases": "cell-based", "key": {"[1]": {"system": "J774 murine macrophage-like cells", "assay": "3[H]-TdR incorporation in growth-arrested J774 cells", "procedure": "(§1) The growth stimulation of macrophage-like cells can be determined by measuring the thymidine uptake of the cells at varying concentrations of the mitogenic peptides of the present invention. This was determined for several macrophage-like cell lines including J774, P388D1, RAW and PU5. These are well-known murine cell lines available, for example, from the American Type Culture Collection, Rockville, Md.\n^3 [H]-TdR incorporation. Various cell lines were plated in Dulbeccos's Modified Eagle Medium (DMEM) containing 10% fetal calf serum (FCS) in […] humidified atmosphere at 37° C. at an initial density of 5×10^5 per well in 24 well disposable plastic plates (Falcon, Oxnard, Calif.). Arrest of DNA synthesis (i.e., G0 /G1) was achieved by incubating the cells for 48 hours in serum-free DMEM containing 0.1% bovine serum albumin (BSA). The cells were then exposed to the peptide or to various […], or to FCS for 48 hours. Enhanced thymidine incorporation was assessed following a 2 hour pulse of N-methyl^3 [H]-TdR (1 μCi/ml). The cells were washed ×3 in PBS (phosphate buffered saline, pH 7.4) at 4, precipitated with 10% trichloroacetic acid (30 min at 4) and the insoluble material extracted ×2 with ETOH:ET2 O (3:1 v/v). The precipitate was solubilized in N NaOH and aliquots withdrawn for protein determinations using a dye-binding assay (Bio Rad Labs., Richmond, Calif.) and liquid scintillation spectrometry.\n(§2) The various cell lines employed in these tests were the murine macrophage-like cell lines J774, P388D1, RAW and PU5. The various […] used in these tests were platelet-derived growth factor (PDGF), epidermal growth factor (EGF), fibroblast growth factor (FGF), and nerve growth factor (NGF). For background information on these known polypeptide growth factors see, for example, the recent review article by Kris et al., Biotechnology, February 1985, pp. 135-140; and the comprehensive review in Hormonal Proteins and Peptides, Ed. by Choh Hao Li, Vol. 12, \"Growth Factors,\" Academic Press, 1984. EGF, NGF and FGF are commercially available from Biomedical Technologies, Cambridge, Massachusetts. In a representative test, 24 hours following exposure of the growth-arrested cells to optimal concentrations of the peptide (i.e., 10^-8 M), cell numbers inoreased approximately two-fold from a control value of […] cells/culture well. […] The results are set forth in FIG. 2 and in Table I, below. In FIG. 2, the baseline tritiated thymidine (^3 [H]-TdR) incorporation in quiescent J774 cells was 5000 cpm ± 420 s.e.m. (standard error of the mean) per well. The results are expressed as the mean of triplicate determinations."}, "[2]": {"system": "growth-arrested murine macrophage-like cells", "assay": "Cell number / proliferation of growth-arrested macrophage-like cells", "conditions": "for proliferation of macrophage-like cells: concentration ranges of up to 500 ng/ml", "source_text": "as §2"}, "[3]": {"system": "P388D1 murine macrophage-like cell line", "assay": "3[H]-TdR incorporation in growth-arrested P388D1 cells", "procedure": "as §1\n(§3) ^3 [H]-TdR incorporation. Various cell lines were plated in Dulbeccos's Modified Eagle Medium (DMEM) containing 10% fetal calf serum (FCS) in […] humidified atmosphere at 37° C. at an initial density of 5×10^5 per well in 24 well disposable plastic plates (Falcon, Oxnard, Calif.). Arrest of DNA synthesis (i.e., G0 /G1) was achieved by incubating the cells for 48 hours in serum-free DMEM containing 0.1% bovine serum albumin (BSA). The cells were then exposed to the peptide or to various […], or to FCS for 48 hours. Enhanced thymidine incorporation was assessed following a 2 hour pulse of N-methyl^3 [H]-TdR (1 μCi/ml). […]\n(§4) The various cell lines employed in these tests were the murine macrophage-like cell lines J774, P388D1, RAW and PU5. […] The results are expressed as the mean of triplicate determinations."}, "[4]": {"system": "PU5 murine macrophage-like cell line", "assay": "3[H]-TdR incorporation in growth-arrested PU5 cells", "procedure": "as §1, §3, §4"}, "[5]": {"system": "RAW murine macrophage-like cell line", "assay": "3[H]-TdR incorporation in growth-arrested RAW cells", "procedure": "as §1, §3, §4"}, "[6]": {"conditions": "J774, test (1), >500 ng per well (highest concentration tested), 48 hours exposure, mean ± s.e.m."}}}
{"substance": "EGF: epidermal growth factor, known polypeptide growth factor [reference compound]", "values": [{"measurement": "3[H]-TdR Incorporation/mg/Protein (% Increase)", "setting": "[1]; [6]", "value": "5.2± 0.2", "unit": "%"}, {"measurement": "proliferation of macrophage-like cells", "setting": "[2]", "value": "failed to elicit proliferation"}]}
{"substance": "H-YPPWNKNFTENDLL-OH [Peptide I, H-Tyr-Pro-Pro-Trp-Asn-Lys-Asn-Phe-Thr-Glu-Asn-Asp-Leu-Leu-OH]", "values": [{"measurement": "Conc./Well: concentration yielding optimal specific 3[H]-TdR incorporation", "setting": "[1]; J774", "value": "10^-8 M"}, {"measurement": "3[H]-TdR Incorporation/mg/Protein (% Increase)", "setting": "[1]; J774, test (1), 10^-8 M per well, 48 hours exposure, mean ± s.e.m. of triplicate cultures", "value": "140± 8.5", "unit": "%"}, {"measurement": "3[H]-TdR Incorporation/mg/Protein (% Increase)", "setting": "[1]; J774, test (2), 10^-8 M per well, mean ± s.e.m.", "value": "190± 12", "unit": "%"}, {"measurement": "increase in cell numbers over control", "setting": "[2]; 24 hours after exposure of growth-arrested cells to 10^-8 M", "value": "approximately two-fold"}, {"measurement": "Conc./Well: concentration yielding optimal specific 3[H]-TdR incorporation", "setting": "[3]; P388D1", "value": "10^ -7 M"}, {"measurement": "3[H]-TdR Incorporation/mg/Protein (% Increase)", "setting": "[3]; P388D1, test (2), 10^-7 M per well, mean ± s.e.m.", "value": "226± 22", "unit": "%"}, {"measurement": "Conc./Well: concentration yielding optimal specific 3[H]-TdR incorporation", "setting": "[4]; PU5", "value": "10^ -6 M"}, {"measurement": "3[H]-TdR Incorporation/mg/Protein (% Increase)", "setting": "[4]; PU5, test (2), 10^-6 M per well, mean ± s.e.m.", "value": "112± 4.4", "unit": "%"}, {"measurement": "Conc./Well: concentration yielding optimal specific 3[H]-TdR incorporation", "setting": "[5]", "value": "10^ -8 M"}, {"measurement": "3[H]-TdR Incorporation/mg/Protein (% Increase)", "setting": "[5]; test (2), 10^-8 M per well, mean ± s.e.m.", "value": "276± 18", "unit": "%"}]}
{"substance": "NGF: nerve growth factor, known polypeptide growth factor [reference compound]", "values": [{"measurement": "3[H]-TdR Incorporation/mg/Protein (% Increase)", "setting": "[1]; [6]", "value": "0± 0.5", "unit": "%"}, {"measurement": "proliferation of macrophage-like cells", "setting": "[2]", "value": "failed to elicit proliferation"}]}
{"substance": "PDGF [reference compound]", "values": [{"measurement": "3[H]-TdR Incorporation/mg/Protein (% Increase)", "setting": "[1]; [6]", "value": "9.4± 0.3", "unit": "%"}, {"measurement": "proliferation of macrophage-like cells", "setting": "[2]", "value": "failed to elicit proliferation"}]}
